Test results as given in US20240270762A1, “PENICILLIN-BINDING PROTEIN INHIBITORS” (priority 2021, published 2024).
In brackets after ≈: the same amount, converted by molar mass.

Key:
[1] = biological target: T1, PBP3 from Escherichia coli (K-12) (Escherichia coli, UniProt P0AD68); assay: Bocillin-FL fluorescence polarization competition binding, E. coli PBP3
T1 construct: made in house
Procedure, shortened: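 Purified PBPs pre-incubated with inhibitor (E. coli PBP3 1.5 μM, 30 min; P. aeruginosa PBP3 0.75 μM, A. baumannii PBP1a 1 μM and PBP3 0.2 μM, 15 min), then Bocillin-FL 0.1 μM (0.05 μM for PBP1a) added; FP read up to 60 min. EC50 = concentration halving bound Bocillin-FL.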

A. baumannii PBP1a = biological target: T2, A. baumannii PBP1a (Acinetobacter baumannii, UniProt A0ABX6CK30); assay: Bocillin-FL competition binding via gel filtration, A. baumannii PBP1a; details: competition binding assay using Bocillin-FL via gel filtration; read-out: A. baumannii PBP1a Potency
T2 sequence (A0ABX6CK30 1-851): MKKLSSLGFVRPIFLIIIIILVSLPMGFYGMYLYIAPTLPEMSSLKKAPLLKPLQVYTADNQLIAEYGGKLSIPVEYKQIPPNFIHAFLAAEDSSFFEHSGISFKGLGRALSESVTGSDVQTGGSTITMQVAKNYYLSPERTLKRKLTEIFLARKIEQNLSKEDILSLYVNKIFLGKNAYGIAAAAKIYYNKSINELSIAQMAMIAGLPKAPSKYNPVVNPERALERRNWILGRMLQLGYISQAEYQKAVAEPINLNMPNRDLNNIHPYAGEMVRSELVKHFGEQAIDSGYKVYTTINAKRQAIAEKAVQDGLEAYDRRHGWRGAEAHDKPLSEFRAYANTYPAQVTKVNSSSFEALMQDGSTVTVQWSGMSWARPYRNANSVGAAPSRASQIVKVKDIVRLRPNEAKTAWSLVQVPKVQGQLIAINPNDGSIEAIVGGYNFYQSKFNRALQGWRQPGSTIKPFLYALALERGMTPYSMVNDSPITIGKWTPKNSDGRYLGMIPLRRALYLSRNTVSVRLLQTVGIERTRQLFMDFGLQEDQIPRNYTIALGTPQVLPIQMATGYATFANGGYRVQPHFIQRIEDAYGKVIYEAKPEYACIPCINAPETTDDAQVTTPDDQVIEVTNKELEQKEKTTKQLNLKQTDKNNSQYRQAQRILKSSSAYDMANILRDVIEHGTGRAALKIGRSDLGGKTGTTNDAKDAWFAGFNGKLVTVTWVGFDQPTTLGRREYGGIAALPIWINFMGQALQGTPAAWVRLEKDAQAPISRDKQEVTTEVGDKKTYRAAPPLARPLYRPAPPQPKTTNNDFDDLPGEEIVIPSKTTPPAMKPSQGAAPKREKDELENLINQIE
Procedure, shortened: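 Enzyme was pre-incubated with rising inhibitor concentrations, then Bocillin-FL was added and incubated 15 minutes more. Bound probe was separated by gel filtration and fluorescence read. EC50 came from fitting fraction of PBP labelled versus inhibitor concentration to a Hill equation with ymin, ymax and n.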

P. aeruginosa ATCC 27853 = assay: microbe, parasite or virus in culture; format: cell-based; details: Pseudomonas aeruginosa, ATCC27853, read-out: Minimum inhibitory concentration, P. aeruginosa ATCC 27853
P. aeruginosa CDC-0054 = assay: microbe, parasite or virus in culture; format: cell-based; details: Pseudomonas aeruginosa, CDC0054, read-out: Minimum inhibitory concentration, P. aeruginosa CDC-0054

T1 sequence (P0AD68 1-577): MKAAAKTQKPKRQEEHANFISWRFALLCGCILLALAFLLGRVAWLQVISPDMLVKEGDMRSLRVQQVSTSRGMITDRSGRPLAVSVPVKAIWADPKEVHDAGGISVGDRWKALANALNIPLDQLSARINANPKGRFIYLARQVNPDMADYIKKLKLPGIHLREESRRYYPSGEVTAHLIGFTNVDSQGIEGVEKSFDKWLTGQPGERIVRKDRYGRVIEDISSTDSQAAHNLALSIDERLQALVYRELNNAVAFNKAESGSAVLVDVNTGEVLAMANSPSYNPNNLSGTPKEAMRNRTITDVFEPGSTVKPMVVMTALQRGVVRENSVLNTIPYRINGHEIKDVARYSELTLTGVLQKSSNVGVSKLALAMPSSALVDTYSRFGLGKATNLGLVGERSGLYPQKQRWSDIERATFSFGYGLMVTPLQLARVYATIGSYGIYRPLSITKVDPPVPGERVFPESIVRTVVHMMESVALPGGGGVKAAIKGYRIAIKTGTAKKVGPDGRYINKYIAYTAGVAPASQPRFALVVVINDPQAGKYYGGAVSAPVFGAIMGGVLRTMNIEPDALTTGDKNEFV

Row | SMILES | EC50 [1] [µM] | EC50 (A. baumannii PBP1a) [µM] | MIC (P. aeruginosa ATCC 27853) [µg/mL] | MIC (P. aeruginosa CDC-0054) [µg/mL]
1 | O=C(O)c1c(F)ccc2c1OB(O)[C@@H](NC(=O)C(NC(=O)N1CCN(C3CCN(C(=O)Nc4cccc(O)c4)CC3)C(=O)C1=O)c1cc(F)c(O)c(O)c1Cl)C2 (stereo partly drawn) [Example 424, (3R)-3-(2-(2-chloro-5-fluoro-3,4-dihydroxyphenyl)-2-(4-(1-((3-hydroxyphenyl)carbamoyl)piperidin-4-yl)-2,3-dioxopiperazine-1-carboxamido)acetamido)-7-fluoro-2-hydroxy-3,4-dihydro-2H-benzo[e][1,2]oxaborinine-8-carboxylic acid] | < 10 | < 10 | < 1 | < 1
2 | O=C(NCCCN1CCN(C(=O)NC(C(=O)N[C@H]2Cc3ccc(F)c(C(=O)O)c3OB2O)c2cc(F)c(O)c(O)c2Cl)C(=O)C1=O)c1cccc(O)c1F (stereo partly drawn) [Example 406, (3R)-3-(2-(2-chloro-5-fluoro-3,4-dihydroxyphenyl)-2-(4.-(3-(2-fluoro-3-hydroxybenzamido)propyl)-2,3-dioxopiperazine-1-carboxamido)acetamido)-7-fluoro-2-hydroxy-3,4-dihydro-2H-benzo[e][1,2]oxaborinine-8-carboxylic acid] | < 10 | < 10 | < 1 | < 1
3 | O=C(NCCCN1CCN(C(=O)NC(C(=O)N[C@H]2Cc3ccc(F)c(C(=O)O)c3OB2O)c2cc(F)c(O)c(O)c2Cl)C(=O)C1=O)c1cc(O)ccc1Cl (stereo partly drawn) [Example 408, (3R)-3-(2-(2-chloro-5-fluoro-3,4-dihydroxyphenyl)-2-(4-(3-(2-chloro-5-hydroxybenzamido)propyl)-2,3-dioxopiperazine-1-carboxamido)acetamido)-7-fluoro-2-hydroxy-3,4-dihydro-2H-benzo[e][1,2]oxaborinine-8-carboxylic acid] | < 10 | < 10 | < 1 | < 1
4 | O=C(NCCCN1CCN(C(=O)NC(C(=O)N[C@H]2Cc3ccc(F)c(C(=O)O)c3OB2O)c2cc(F)c(O)c(O)c2Cl)C(=O)C1=O)c1ccc(O)c(Cl)c1F (stereo partly drawn) [Example 419, (3R)-3-(2-(4-(3-(3-chloro-2-fluoro-4-hydroxybenzamido)propyl)-2,3-dioxopiperazine-1-carboxamido)-2-(2-chloro-5-fluoro-3,4-dihydroxyphenyl)acetamido)-7-fluoro-2-hydroxy-3,4-dihydro-2H-benzo[e][1,2]oxaborinine-8-carboxylic acid] | < 10 | < 10 | 2 to 4 (≈ 2.46 to 4.92 µM) | 2 to 4 (≈ 2.46 to 4.92 µM)
5 | O=C(NCCCN1CCN(C(=O)NC(C(=O)N[C@H]2Cc3ccc(F)c(C(=O)O)c3OB2O)c2cc(F)c(O)c(O)c2Cl)C(=O)C1=O)c1cc(O)c(F)c(O)c1F (stereo partly drawn) [Example 415, (3R)-3-(2-(2-chloro-5-fluoro-3,4-dihydroxyphenyl)-2-(4-(3-(2,4-difluoro-3,5-dihydroxybenzamido)propyl)-2,3-dioxopiperazine-1-carboxamido)acetamido)-7-fluoro-2-hydroxy-3,4-dihydro-2H-benzo[e][1,2]oxaborinine-8-carboxylic acid] | 10 to 50 | < 10 | < 1 | < 1
6 | O=C(NCCCN1CCN(C(=O)NC(C(=O)N[C@H]2Cc3ccc(F)c(C(=O)O)c3OB2O)c2cc(F)c(O)c(O)c2Cl)C(=O)C1=O)c1cc(F)ncc1F (mixture of isomers) [Example 405] | < 10 | 10 to 50 | 2 to 4 | 2 to 4
7 | O=C(O)c1c(F)ccc2c1OB(O)[C@@H](NC(=O)C(NC(=O)N1CCN(C3CCN(C(=O)c4ccc(O)cc4)CC3)C(=O)C1=O)c1cc(F)c(O)c(O)c1Cl)C2 (stereo partly drawn) [Example 427, (3R)-3-(2-(2-chloro-5-fluoro-3,4-dihydroxyphenyl)-2-(4-(1-(4-hydroxybenzoyl)piperidin-4-yl)-2,3-dioxopiperazine-1-carboxamido)acetamido)-7-fluoro-2-hydroxy-3,4-dihydro-2H-benzo[e][1,2]oxaborinine-8-carboxylic acid] | < 10 | < 10 | < 1 | 2 to 4 (≈ 2.54 to 5.09 µM)
8 | O=C(NCCCN1CCN(C(=O)N[C@@H](C(=O)N[C@H]2Cc3ccc(F)c(C(=O)O)c3OB2O)c2cc(F)c(O)c(O)c2Cl)C(=O)C1=O)c1c(F)cc(O)cc1F (racemic) [Example 420] | < 10 | 10 to 50 | 2 to 4 (≈ 2.51 to 5.03 µM) | 2 to 4 (≈ 2.51 to 5.03 µM)
9 | O=C(NCCCN1CCN(C(=O)N[C@@H](C(=O)N[C@H]2Cc3ccc(F)c(C(=O)O)c3OB2O)c2cc(F)c(O)c(O)c2Cl)C(=O)C1=O)c1cc(F)c(O)c(F)c1 [Example 422, (R)-3-((R)-2-(2-chloro-5-fluoro-3,4-dihydroxyphenyl)-2-(4-(3-(3,5-difluoro-4-hydroxybenzamido)propyl)-2,3-dioxopiperazine-1-carboxamido)acetamido)-7-fluoro-2-hydroxy-3,4-dihydro-2H-benzo[e][1,2]oxaborinine-8-carboxylic acid] | < 10 | < 10 | 2 to 4 (≈ 2.51 to 5.03 µM) | < 1
10 | O=C(NCCCN1CCN(C(=O)NC(C(=O)N[C@H]2Cc3ccc(F)c(C(=O)O)c3OB2O)c2cc(F)c(O)c(O)c2Cl)C(=O)C1=O)c1ccc(O)c(F)c1Cl (stereo partly drawn) [Example 418, (3R)-3-(2-(4-(3-(2-chloro-3-fluoro-4-hydroxybenzamido)propyl)-2,3-dioxopiperazine-1-carboxamido)-2-(2-chloro-5-fluoro-3,4-dihydroxyphenyl)acetamido)-7-fluoro-2-hydroxy-3,4-dihydro-2H-benzo[e][1,2]oxaborinine-8-carboxylic acid] | < 10 | < 10 | 2 to 4 (≈ 2.46 to 4.92 µM) | < 1
11 | O=C(O)c1c(F)ccc2c1OB(O)[C@@H](NC(=O)C(NC(=O)N1CCN(C3CCN(S(=O)(=O)c4cccc(O)c4)CC3)C(=O)C1=O)c1cc(F)c(O)c(O)c1Cl)C2 (stereo partly drawn) [Example 428, (3R)-3-(2-(2-chloro-5-fluoro-3,4-dihydroxyphenyl)-2-(4-(1-((3-hydroxyphenyl)sulfonyl)piperidin-4-yl)-2,3-dioxopiperazine-1-carboxamido)acetamido)-7-fluoro-2-hydroxy-3,4-dihydro-2H-benzo[e][1,2]oxaborinine-8-carboxylic acid] | < 10 | < 10 | 2 to 4 (≈ 2.43 to 4.87 µM) | < 1
12 | O=C(O)c1c(F)ccc2c1OB(O)[C@@H](NC(=O)C(NC(=O)N1CCN(C3CCN(C(=O)c4cc(O)cc(O)c4)CC3)C(=O)C1=O)c1cc(F)c(O)c(O)c1Cl)C2 (stereo partly drawn) [Example 309, (3R)-3-(2-(2-chloro-5-fluoro-3,4-dihydroxyphenyl)-2-(4-(1-(3,5-dihydroxybenzoyl)piperidin-4-yl)-2,3-dioxopiperazine-1-carboxamido)acetamido)-7-fluoro-2-hydroxy-3,4-dihydro-2H-benzo[e][1,2]oxaborinine-8-carboxylic acid] | < 10 | 10 to 50 | 2 to 4 (≈ 2.49 to 4.99 µM) | < 1
13 | O=C(NCCCN1CCN(C(=O)N[C@@H](C(=O)N[C@H]2Cc3ccc(F)c(C(=O)O)c3OB2O)c2cc(F)c(O)c(O)c2Cl)C(=O)C1=O)c1ccc(O)cc1Cl (single isomer, unassigned) [Example 471] | < 10 | < 10 | < 1 | < 1
